# Experimental data from ChEMBL document CHEMBL1143035, “Synthesis, antifungal and haemolytic activity of a series of bis(pyridinium)alkanes” (Bioorg Med Chem, 2007).
# Where a name gives a salt, the structure may show the parent alone.
# Assays:
# Candida albicans = assay: Antifungal activity against Candida albicans ATCC 10231; type: functional
# Cryptococcus neoformans = assay: Antifungal activity against Cryptococcus neoformans ATCC 90112; type: functional
# [1] = molecular target: T1, Phospholipase B (Cryptococcus neoformans) (UniProt Q9P8P2); assay: Inhibition of phospholipase B activity of PLB1 in Cryptococcus neoformans var. grubii H99 assessed as loss of 1,2-di[1-14C]palmitoyl phosphatidylcholine at 250 uM
# T1 sequence (whole entry): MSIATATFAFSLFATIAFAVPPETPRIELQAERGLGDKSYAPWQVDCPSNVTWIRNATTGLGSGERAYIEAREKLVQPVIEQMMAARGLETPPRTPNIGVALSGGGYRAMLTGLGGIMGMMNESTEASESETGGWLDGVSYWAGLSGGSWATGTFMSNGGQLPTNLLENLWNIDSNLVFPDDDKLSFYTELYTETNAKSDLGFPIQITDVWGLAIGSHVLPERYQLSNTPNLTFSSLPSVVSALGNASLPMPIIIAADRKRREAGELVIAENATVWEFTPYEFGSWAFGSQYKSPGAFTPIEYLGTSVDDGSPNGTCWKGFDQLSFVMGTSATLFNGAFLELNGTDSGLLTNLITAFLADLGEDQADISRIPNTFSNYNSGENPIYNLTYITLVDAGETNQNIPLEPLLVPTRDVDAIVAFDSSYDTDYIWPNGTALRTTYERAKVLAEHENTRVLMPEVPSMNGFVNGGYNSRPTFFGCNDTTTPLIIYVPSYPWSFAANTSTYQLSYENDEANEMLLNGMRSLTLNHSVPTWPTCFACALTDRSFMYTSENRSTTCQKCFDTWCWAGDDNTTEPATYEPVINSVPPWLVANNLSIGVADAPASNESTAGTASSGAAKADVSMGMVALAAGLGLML
# [2] = Cytotoxicity against human erythrocytes assessed as hemolytic activity at 500 uM; type: cell-based; conditions: erythrocyte
# Lomentospora prolificans = assay: Antifungal activity against Scedosporium prolificans 1-003-040; type: functional
# Fusarium solani = assay: Antifungal activity against Fusarium solani 04-132-4207; type: functional
# Scedosporium boydii = assay: Antifungal activity against Scedosporium apiospermum 1-003-056; type: functional
# Aspergillus terreus = assay: Antifungal activity against Aspergillus terreus 03-232-378; type: functional
# Aspergillus flavus = assay: Antifungal activity against Aspergillus flavus ATCC 204 304; type: functional
# Aspergillus fumigatus = assay: Antifungal activity against Aspergillus fumigatus ATCC 204 305; type: functional
# [3] = molecular target: T1, Phospholipase B (Cryptococcus neoformans); assay: Inhibition of lysophospholipase transacylase activity of PLB1 in Cryptococcus neoformans var. grubii H99 assessed as rate of formation of 1-[14C]palmitoyl lyso phosphatidylcholine at 2.5 uM
# [4] = molecular target: T1, Phospholipase B (Cryptococcus neoformans); assay: Inhibition of lysophospholipase activity of PLB1 in Cryptococcus neoformans var. grubii H99 assessed as loss of 1-[14C]palmitoyl lyso phosphatidylcholine at 0.25 uM
# [5] = molecular target: T1, Phospholipase B (Cryptococcus neoformans); assay: Inhibition of lysophospholipase transacylase activity of PLB1 in Cryptococcus neoformans var. grubii H99 assessed as rate of formation of 1-[14C]palmitoyl lyso phosphatidylcholine at 25 uM
# [6] = Cytotoxicity against human erythrocytes assessed as hemolytic activity at 50 uM; type: cell-based, Erythrocyte; conditions: read-out: Activity
# [7] = molecular target: T1, Phospholipase B (Cryptococcus neoformans); assay: Inhibition of lysophospholipase transacylase activity of PLB1 in Cryptococcus neoformans var. grubii H99 assessed as rate of formation of 1-[14C]palmitoyl lyso phosphatidylcholine at 0.25 uM
# [8] = molecular target: T1, Phospholipase B (Cryptococcus neoformans); assay: Inhibition of lysophospholipase activity of PLB1 in Cryptococcus neoformans var. grubii H99 assessed as loss of 1-[14C]palmitoyl lyso phosphatidylcholine at 250 uM
# [9] = molecular target: T1, Phospholipase B (Cryptococcus neoformans); assay: Inhibition of phospholipase B activity of PLB1 in Cryptococcus neoformans var. grubii H99 assessed as loss of 1,2-di[1-14C]palmitoyl phosphatidylcholine at 25 uM
# [10] = Cytotoxicity against human erythrocytes assessed as hemolytic activity at 5 uM; type: cell-based, Erythrocyte; conditions: read-out: Activity
# [11] = molecular target: T1, Phospholipase B (Cryptococcus neoformans); assay: Inhibition of lysophospholipase activity of PLB1 in Cryptococcus neoformans var. grubii H99 assessed as loss of 1-[14C]palmitoyl lyso phosphatidylcholine at 25 uM
# [12] = molecular target: T1, Phospholipase B (Cryptococcus neoformans); assay: Inhibition of phospholipase B activity of PLB1 in Cryptococcus neoformans var. grubii H99 assessed as loss of 1,2-di[1-14C]palmitoyl phosphatidylcholine at 0.25 uM
# [13] = molecular target: T1, Phospholipase B (Cryptococcus neoformans); assay: Inhibition of phospholipase B activity of PLB1 in Cryptococcus neoformans var. grubii H99 assessed as loss of 1,2-di[1-14C]palmitoyl phosphatidylcholine at 2.5 uM
# [14] = molecular target: T1, Phospholipase B (Cryptococcus neoformans); assay: Inhibition of lysophospholipase transacylase activity of PLB1 in Cryptococcus neoformans var. grubii H99 assessed as rate of formation of 1-[14C]palmitoyl lyso phosphatidylcholine at 250 uM
# [15] = molecular target: T1, Phospholipase B (Cryptococcus neoformans); assay: Inhibition of lysophospholipase activity of PLB1 in Cryptococcus neoformans var. grubii H99 assessed as loss of 1-[14C]palmitoyl lyso phosphatidylcholine at 2.5 uM
Compound,MIC (Candida albicans) [µM],MIC (Cryptococcus neoformans) [µM],Activity [2],also measured
Nc1cccc[n+]1CCCCCCCCCCCC[n+]1ccccc1N.[Br-].[Br-],5.5,5.5,Not Active,inhibition [1]: 40%
Cc1cc(N)c2ccccc2[n+]1CCCCCCCCCCCC[n+]1c(C)cc(N)c2ccccc21.[Cl-].[Cl-],22,88,Not Active,
[Br-].[Br-].c1cc[n+](CCCCCCCCCC[n+]2ccccc2)cc1,88,350,Not Active,
[Br-].[Br-].c1cc[n+](CCCCCC[n+]2ccccc2)cc1,175,> 350,Not Active,
[Br-].[Br-].c1cc[n+](CCCCCCCCCCCC[n+]2ccccc2)cc1,44,88,Not Active,
Br.Br.N=c1ccn(CCCCCCCCCCn2ccc(=N)cc2)cc1,2.8,22,Not Active,
CN(C)c1cc[n+](CCCCCCCCCCCC[n+]2ccc(N(C)C)cc2)cc1.[Br-].[Br-],2.8,2.8,Not Active,inhibition [1]: 40%
Cc1cc(N)c2ccccc2[n+]1CCCCCCCC[n+]1c(C)cc(N)c2ccccc21.[Br-].[Br-],5.5,5.5,Not Active,
[Cl-].[Cl-].c1ccc2c(c1)ccc[n+]2CCCCCCCCCCCC[n+]1cccc2ccccc21,22,11,Not Active,
[Br-].[Br-].c1ccc2c(c1)ccc[n+]2CCCCCCCCCC[n+]1cccc2ccccc21,88,88,Not Active,

# Continued by falling MIC (Candida albicans), values first:
MIC (Candida albicans) [µM],MIC (Cryptococcus neoformans) [µM],Compound,Activity [2],also measured
175,> 350,[Br-].[Br-].c1cc[n+](CCCCCCCC[n+]2ccccc2)cc1,Not Active,
5.5,11,Cc1cc(N)c2ccccc2[n+]1CCCCCCCCCC[n+]1c(C)cc(N)c2ccccc21.[Cl-].[Cl-] [DEQUALINIUM CHLORIDE],Not Active,
1.4,1.4,Nc1cc[n+](CCCCCCCCCCCCCCCC[n+]2ccc(N)cc2)cc1.[Br-].[Br-],Not Active,inhibition [1]: 40%
1.4,2.8,CNc1cc[n+](CCCCCCCCCCCC[n+]2ccc(NC)cc2)cc1.[Br-].[Br-],Not Active,MIC (Lomentospora prolificans): 2.8 µM; MIC (Fusarium solani): 44 µM; MIC (Scedosporium boydii): 2.8 µM; MIC (Aspergillus terreus): 11 µM; MIC (Aspergillus fumigatus): 44 µM; MIC (Aspergillus flavus): 44 µM
1.4,0.7,CCCCCCCCN=c1ccn(CCCCCCCCCCn2ccc(=NCCCCCCCC)cc2)cc1 [OCTENIDINE HYDROCHLORIDE],,inhibition [3]: 12%; inhibition [4]: 0%; inhibition [5]: 43%; hemolysis at 50 µM [6]: 43%; inhibition [7]: 0%; inhibition [8]: 97%; inhibition [9]: 80%; hemolysis at 5 µM [10]: 9%; inhibition [1]: 100%; inhibition [11]: 46%; inhibition [12]: 0%; inhibition [13]: 50%; inhibition [14]: 97%; inhibition [15]: 16%
1.4,5.5,Br.Br.N=c1ccn(CCCCCCCCCCCCn2ccc(=N)cc2)cc1,Not Active,inhibition [1]: 40%
0.55,0.55,C[C@@H]1[C@H](O)[C@@H](C)/C=C/C=C/C=C/C=C/C=C/C=C/C=C/[C@H](O[C@@H]2O[C@H](C)[C@@H](O)[C@H](N)[C@@H]2O)C[C@@H]2O[C@](O)(C[C@@H](O)C[C@@H](O)[C@H](O)CC[C@@H](O)C[C@@H](O)CC(=O)O[C@H]1C)C[C@H](O)[C@H]2C(=O)O [AMPHOTERICIN B],,MIC (Lomentospora prolificans): 4.4 µM; MIC (Fusarium solani): 0.28 µM; MIC (Scedosporium boydii): 0.55 µM; MIC (Aspergillus terreus): 1.1 µM; MIC (Aspergillus flavus): 0.55 µM
